Test results as given in patent US8618074B2, “GPCR enhanced neuroprotection to treat brain injury” (Board of Regents of the University of Texas System, priority 2007, dated 2013).

How the values were obtained:
[1] = system: astrocytes; assay: Time until mitochondrial membrane potential (ΔΨ, TMRE) collapse during t-BuOOH oxidative stress; assay type: cell-based, mouse; conditions: for average time until ΔΨ collapse: XeC 25 μM pretreatment + ATP 10 μM, then t-BuOOH 100 μM; for time until ΔΨ collapse: then t-BuOOH
Protocol: Primary cultures of astrocytes were prepared as previously published (Lin et al., 2005). C57BL/6 male mice were purchased from the National Institute of Aging and maintained in standard accredited housing conditions at the University of Texas Health Science Center Animal Facility. Animal protocols were approved by our Institutional Animal Care Use Committee. Astrocytes were cultured in DMEM F-12 media (Invitrogen, # 11039-021) supplemented with 2 mM glutamine, nonessential amino acids, 10% fetal calf serum, 100 U/ml penicillin/streptomycin (Cambrex BioScience Walkersville, #17-602E) and 1% fungizone (Invitrogen, #15290-018) at 37° C. in an atmosphere containing 5% CO2. The culture medium was changed every 3-5 days. Confluent cells were gently removed by a trypsin EDTA solution and re-plated on 35 mm glass bottom chambers (Bioptechs #04200415C) prior to imaging experiments 3-4 days later. Cells were maintained in plastic culture flasks until the final re-seeding of cells onto a glass bottom chamber and were passed up to 3 times for astrocyte only experiments. For co-culture experiments with neurons, primary astrocytes were plated directly onto corning transwell-clear permeable supports, which physically separates the two cell-types by ˜1 mm (# 07-200-170, Fisher scientific). Astrocytes were cultured in transwells until they were ˜70% confluent. Mouse cortical neurons (Cambrex Bio Science Walkersville Inc., # M-CX-300) were then cultured onto 6 well mat-tek glass bottom plates and maintained in Neurobasal Medium (Invitrogen, # 21103-049), 2 mM L-Glutamine (Cambrex BioScience Walkersville, #17-605E), 100 U/ml penicillin/streptomycin (Cambrex BioScience Walkersville, #17-602E) and B-27 with (Invitrogen, #17504-044) and without antioxidants (Invitrogen, #10889-038), which controls glia contamination to less than 0.5%. The transwell supports with cultured astrocytes were placed in the neuron seeded glass bottom chambers for four days before imaging and both cell types were then maintained in neuronal media. For neuron only experiments, the astrocytes on the transwell supports were removed prior to treatments and imaging.
(§1) Mitochondrial membrane potentials (ΔΨs) was measured as previously described using the potential sensitive dye tetra-methyl rhodamine ethyl ester (TMRE, Molecular Probes, #T-669) (Lin and Lechleiter, 2002). Images were acquired with a 60× oil 1.4 NA objective on a Nikon PCM2000 confocal microscope custom adapted for two-photon imaging. A Ti-sapphire Coherent Mira 900 Laser pumped with a 5W Verdi laser (Coherent Inc., Santa Clara, Calif.) was used to excite TMRE at 800 nm A neutral-density filter wheel was used to attenuate the laser intensity so that no detectable photobleaching of TMRE was observed.
To investigate this, primary cultures of astrocytes were prepared from the brains of young (4-6 months) and old (26-28 months) mice and re-plated on glass coverslips prior to each imaging experiment as previously described. Seeded glass coverslips were then sealed in an open chamber (Bioptechs Delta T) and perfused at 37° C. with the potential sensitive dye tetramethyl rhodamine ethyl ester (TMRE, 200 nM, Molecular Probes/Invitrogen) to label astrocyte mitochondria. Mitochondrial membrane potentials (ΔΨs) were measured every 5 minutes using two-photon microscopy. Each image is a maximum intensity projection of a z-stack of six optical sections (1-μm steps). Scale bar is 10 μm. Plated cells were continuously perfused at 37° C. with culture medium containing TMRE (200 nM) and imaged with 2-photon microscopy (800 nm). Oxidative stress was applied to the cells in the perfusate with t-BuOOH (100 μM). Cell viability was then monitored by the collapse of ΔΨ (TMRE fluorescence) to 10% of its initial value. The time course of ΔΨ collapse is plotted for 3 astrocytes (A1, A2, A3) in each culture (FIGS. 1B and 2B). Fluorescent units are scaled to 100% at 0 hours. […]

[2] = system: astrocytes; assay: Fura-2 two-photon imaging of intracellular Ca2+ response; assay type: cell-based, mouse; conditions: for Ca2+ response: then IP3-BM
Protocol: Ca^2+ activity was imaged as previously described (Camacho and Lechleiter, 1995). In brief, cultured astrocytes were incubated with the fura-2 am (Molecular Probes, #F-1221) 30 min prior to the experiment. Images were acquired with two-photon excitation (800 nm) at the rate of 1.5 images/ sec. […] Images were analyzed with Image J and ANALYZE® software (the Mayo Foundation, Rochester, MN). The D-enantiomer of the 1P3-BM ester was synthesized by Stuart Conway in the Cambridge University Chemical Laboratory by using a modification of the protocol of Tsien and co-workers (Li et al., 1997).
The primary response of glial cells to extracellular ATP is an increase in intracellular Ca^2+. To investigate whether the protective effect of ATP could be initiated by a Ca^2+ response, we loaded cultures of astrocytes with the Ca^2+ indicator dye Fura-2 AM (10 μM for 30 minutes). Fura-2 fluorescence was imaged with 2-photon microscopy using 800 nm excitation. At this wavelength, fluorescence is primarily due to the Ca^2+ free form of fura-2. […] When young astrocyte cultures were exposed to extracellular ATP (10 μM for 10 minutes), the peak intracellular Ca^2+ (−ΔF/F) was increased to 0.46±0.02 (n=25, pooled from 2 experiments). […] We tested whether the ATP-induced Ca^2+ response could be attributed to the metabotropic pathway, since IP3 mediated Ca^2+ release can stimulate mitochondrial energy production as well as sensitize mitochondria to apoptotic stimuli. Astrocytes cultured from old mice were pretreated with Xestospongin C (XeC, 25 μM for 30 minutes), which is a competitive inhibitor of IP3 binding to the IP3R. […] This is consistent with other reports showing that activation of the ionotropic P2X receptor activation also increases Ca^2+ in cultured astrocytes. To determine whether the metabotropic pathway was involved with the protective effect of extracellular ATP, we subsequently exposed the XeC/ATP treated astrocytes to oxidative stress. As described above, the perfusate contained t-BuOOH (100 μM) and TMRE (200 nM) to monitor ΔΨ. Under these experimental conditions, the average time until ΔΨ collapse was reduced to 5.48±0.22 (n=23, pooled from 2 experiments) in young astrocytes (FIG. 1C) and to 4.02±0.18 h (n=19, pooled from 2 experiments) in old astrocytes (FIG. 2C). […] We concluded that the protective effect of ATP on astrocytes was mediated by P2Y-receptors (P2Y-Rs).

[3] = system: astrocytes; assay: Mitochondrial membrane potential ΔΨ estimated as log(Fmito/Fcyto) with TMRE; assay type: cell-based, mouse
Protocol: as §1
We confirmed this by directly measuring the effect of ATP, ATP plus XeC and IP3-BM treatments on ΔΨ. Cultured cells were labeled with TMRE (200 nM) and imaged with a two-photon microscope as described above. ΔΨ was estimated as the log (Fmito/Fcyto) where Fmito is the peak fluorescent intensity observed in single mitochondria (Farkas et al., 1989; Lin et al., 2005). The mean values of individual mitochondria from a single cell were used for the mitochondrial potential estimate. Fcyto represents the lowest value of TMRE fluorescence observed within the boundaries of the same cell. […] FIG. 5E depicts a histogram plot showing average mitochondrial membrane potentials before and after treatment. The mean resting ΔΨs for untreated (Buffer), ATP-treated, ATP plus XeC-treated and IP3-BM-treated were 1.84+0.01 (n=78 mitochondria, pooled from 2 experiments), 1.84+0.01 (n=85 mitochondria), 1.85+0.01 (n=80 mitochondria) and 1.86+0.01 (n=48 mitochondria), respectively. Astrocyte cultures were then exposed to their respective treatments and the same fields of mitochondria were imaged 10 minutes later.

[4] = system: HEK293 cells that were overexpressing type 1 muscarinic acetylcholine receptors (mAchR1s); assay: Cell death induced by t-BuOOH or ceramide with IP3-gated Ca2+ release stimulation; assay type: cell-based, human; conditions: ACh 1 μM; t-BuOOH (100 μM, 3 hrs) or ceramide (40 μM, 12 hrs)
Source text: P2 purinoceptors are a class of cell surface receptors, subdivided into either the ligand-gated ionotropic receptors (P2X) or G-protein-coupled metabotropic receptors (P2Y)). We focused our work on the P2Y-Rs due to their strong coupling to Gq/11 signaling pathway in astrocytes. Activation of P2Y-receptors stimulates PLCB isoenzymes, increasing inositol triphosphate (IP3) formation and subsequent Ca^2+ mobilization from thapsigargin sensitive stores in the endoplasmic reticulum (ER). Thapsigargin is a specific inhibitor of the sarco-endoplasmic reticulum Ca^2+ ATPases (SERCAs). As mentioned above, IP3-mediated Ca^2+ release is efficiently sequestered by mitochondria, due to its physically close proximity the Ca^2+ channel pore. Increased mitochondrial Ca^2+ uptake via the Ca^2+ uniporter rapidly stimulates Ca^2+ sensitive dehydrogenases and subsequently, increases respiration and ATP production. […] Another important point to make with regard to mitochondrial Ca^2+ signaling is that high matrix Ca^2+ is generally thought to sensitize cells to cell death stimuli. During prolonged periods or with sufficiently high concentrations, matrix Ca^2+ induces opening of the mitochondrial permeability transition pore (MPT). Recent work has identified the mitochondrial targeted cyclophilin D as a key player in Ca^2+ stimulated cell death. […]

[5] = system: Rose Bengal (RB)-induced cerebral infarcts in mouse cortex; assay: RB-induced photothrombosis lesion size in parietal cortex of GFAP-GFP transgenic mice (confocal); assay type: in vivo; conditions: 24 and 48 hours post-ischemia; with versus without MRS2365
Source text: A precise clot in a blood vessel is induced using the photosensitive dye Rose Bengal (RB) in the mouse cortex. The blood vessels were simultaneously imaged by injecting the red fluorescent dye […] into the mouse circulation. The targeted blood vessel is illuminated by a 543-nm laser after tail vein injection of RB. RB is activated by the laser and interacts with molecular oxygen to form singlet oxygen, which is known to damage endothelial cells within the blood vessel, thereby triggering the natural clotting cascade and leading to formation of a clot. Pharmacological agents can be introduced at the time of photoactivation which also causes the breakdown of the blood-brain barrier.
The parietal cortex of GFAP-GFP transgenic mice was imaged using confocal microscopy and a 40×NA 0.8 or 10×NA 0.45 objective. The same region of the cortex was periodically imaged prior to RB injection, and 10, 20, 30, and 40 minutes post-RB injection. RB is impermeable to the BBB and is cleared quickly under physiological conditions.
The parietal cortex of GFAP-GFP transgenic mice was imaged using confocal microscopy and a 10×0.45 NA objective. […] The size of the lesion was calculated in Image J by tracing the region of the cortex that was void of GFP expressing astrocytes. […]

C1CCC[C@H]2CCCN3CC[C@@H](CCCCCC[C@@H]4CCCN5CC[C@@H](CC1)O[C@@H]45)O[C@@H]23 [XeC, Xestospongin C]
average time until ΔΨ collapse ([1]; old astrocytes): 4.02 ± 0.18 h
time until ΔΨ collapse ([1]; old astrocytes, XeC pretreatment + IP3-BM): 4.48±0.07
average time until ΔΨ collapse ([1]; young astrocytes): 5.48 ± 0.22 h
time until ΔΨ collapse ([1]; young astrocytes, XeC pretreatment + IP3-BM): 4.73±0.05
peak Ca2+ response ([2]; old astrocytes, XeC 25 μM 30 min pretreatment, then ATP 10 μM): 0.28±0.04
Ca2+ response ([2]; old astrocytes, XeC 25 μM 30 min pretreatment): 0.13±0.01
Ca2+ response ([2]; young astrocytes, XeC 25 μM 30 min pretreatment): 0.11±0.01
ΔΨ (log Fmito/Fcyto) after treatment ([3]; pretreated with XeC and then exposed to ATP): 1.87±0.01

CC(=O)OCC[N+](C)(C)C [ACh]
cell death [4]: significantly higher

CSc1nc(N)c2ncn([C@H]3[C@H](O)[C@H](O)[C@]4(COP(=O)(O)OP(=O)(O)O)C[C@H]34)c2n1 [MRS2365, N-methanocarba-2MeSADP]
size of the lesion (cortex void of GFP expressing astrocytes) [5]: greatly reduces the size of the lesion

CCCC(=O)OCOP(=O)(OCOC(=O)CCC)O[C@@H]1[C@H](O)[C@H](O)[C@@H](OP(=O)(OCOC(=O)CCC)OCOC(=O)CCC)[C@H](OP(=O)(OCOC(=O)CCC)OCOC(=O)CCC)[C@H]1O [IP3-BM, butyryloxymethyl ester of IP3]
time until ΔΨ collapse ([1]; old astrocytes, IP3-BM 25 μM fifteen minutes): 6.32±0.35
time until ΔΨ collapse ([1]; young astrocytes, IP3-BM 25 μM fifteen minutes): 6.82±0.32
peak Ca2+ response ([2]; old astrocytes, IP3-BM 25 μM): 0.24±0.02
peak Ca2+ response ([2]; young astrocytes, IP3-BM 25 μM): 0.34±0.02
ΔΨ (log Fmito/Fcyto) after treatment ([3]; treating astrocytes for 10 minutes): 2.02±0.01
